One assay concerns the target PDE4A10 (Homo sapiens, UniProt P27815). The experiment in a line: biochemical.
A further assay concerns human PBMC. Kind of assay: Viability, serum-free, hPBMC, LPS (ATP). The class given is cell-based. The protocol:
Viability, Serum-Free, hPBMC, LPS
The viability of the cells from the TNF-α assay is measured in the wells using the ATP vialight kit (Perkin Elmer, ATP-lite M, cat. no 6016949). The assay detects the amount of ATP using a bioluminescent method that utilizes an enzyme, luciferase, which catalyses the formation of light from ATP and luciferin according to the following reaction:
The emitted light intensity is linearly related to the ATP concentration and is measured using a luminometer. The effect (inhibition of viability) of a test compound was calculated using equation 1:
[formula] • where • So=Emitted light intensity reflecting the ATP concentration in the presence of 0.1% DMSO, • Sc=Emitted light intensity reflecting the ATP concentration in the presence of 10 μM Actinomycin in 0.1% DMSO and • Sx=Emitted light intensity reflecting the ATP concentration in the presence of test compound in 0.1% DMSO.
This model describes a sigmoidal curve with an adjustable baseline, a. […]
[formula] • where • C=concentration of test compound • % Effect=normalized response calculated as described in Equation 1 • Emin=min response as compound concentration approaches 0 • Emax=max response as concentration of tested compound is increasing • EC50=Concentration of tested compound giving a response in the middle of Emin and Emax • nH=Hill coefficient or curve slope.

Assay [1] deals with human recombinant PDE4D protein (Homo sapiens, UniProt Q08499). Kind of assay: PDE4D scintillation proximity assay (SPA). The note with it: purified human recombinant PDE4D. The class given is biochemical. As for the experimental part: PDE4 enzymatic activity was measured in a scintillation proximity assay using purified human recombinant PDE4D protein.
human recombinant PDE4D protein, sequence (Q08499 whole entry): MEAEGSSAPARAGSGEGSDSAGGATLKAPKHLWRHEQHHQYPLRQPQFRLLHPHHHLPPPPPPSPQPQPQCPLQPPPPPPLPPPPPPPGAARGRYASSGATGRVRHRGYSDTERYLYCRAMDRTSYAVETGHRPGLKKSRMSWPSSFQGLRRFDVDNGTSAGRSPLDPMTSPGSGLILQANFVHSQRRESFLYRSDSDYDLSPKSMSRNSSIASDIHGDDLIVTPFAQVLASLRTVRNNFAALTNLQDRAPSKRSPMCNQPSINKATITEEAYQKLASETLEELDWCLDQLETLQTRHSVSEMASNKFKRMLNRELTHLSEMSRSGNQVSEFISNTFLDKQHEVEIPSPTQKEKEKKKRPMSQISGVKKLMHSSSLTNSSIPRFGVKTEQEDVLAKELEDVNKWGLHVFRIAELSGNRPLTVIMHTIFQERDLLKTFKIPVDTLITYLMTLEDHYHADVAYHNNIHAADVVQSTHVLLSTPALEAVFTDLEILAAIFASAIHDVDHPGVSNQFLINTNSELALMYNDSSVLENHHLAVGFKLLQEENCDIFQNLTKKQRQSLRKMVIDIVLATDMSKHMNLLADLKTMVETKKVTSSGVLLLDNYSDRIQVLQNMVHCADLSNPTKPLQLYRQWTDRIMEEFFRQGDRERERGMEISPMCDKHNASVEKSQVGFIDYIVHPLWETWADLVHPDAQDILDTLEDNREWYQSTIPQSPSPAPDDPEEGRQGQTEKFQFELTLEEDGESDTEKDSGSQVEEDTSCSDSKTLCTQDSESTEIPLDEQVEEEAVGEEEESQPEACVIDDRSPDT
(In general: SPA uses beads or plates that emit light when radiolabelled molecules are held near them.)

Another assay deals with TNF-α. Kind of assay: LPS-induced TNF-α in ferrets after single oral administration. The note with it: oral 1, 3 and 10 mg/kg; 1 hour after LPS (3 mg/kg ip).
In a further assay the target is PDE4A1 (Homo sapiens, UniProt P27815). The experiment in a line: biochemical.
PDE4A1, sequence (P27815 1-647 isoform P27815-4): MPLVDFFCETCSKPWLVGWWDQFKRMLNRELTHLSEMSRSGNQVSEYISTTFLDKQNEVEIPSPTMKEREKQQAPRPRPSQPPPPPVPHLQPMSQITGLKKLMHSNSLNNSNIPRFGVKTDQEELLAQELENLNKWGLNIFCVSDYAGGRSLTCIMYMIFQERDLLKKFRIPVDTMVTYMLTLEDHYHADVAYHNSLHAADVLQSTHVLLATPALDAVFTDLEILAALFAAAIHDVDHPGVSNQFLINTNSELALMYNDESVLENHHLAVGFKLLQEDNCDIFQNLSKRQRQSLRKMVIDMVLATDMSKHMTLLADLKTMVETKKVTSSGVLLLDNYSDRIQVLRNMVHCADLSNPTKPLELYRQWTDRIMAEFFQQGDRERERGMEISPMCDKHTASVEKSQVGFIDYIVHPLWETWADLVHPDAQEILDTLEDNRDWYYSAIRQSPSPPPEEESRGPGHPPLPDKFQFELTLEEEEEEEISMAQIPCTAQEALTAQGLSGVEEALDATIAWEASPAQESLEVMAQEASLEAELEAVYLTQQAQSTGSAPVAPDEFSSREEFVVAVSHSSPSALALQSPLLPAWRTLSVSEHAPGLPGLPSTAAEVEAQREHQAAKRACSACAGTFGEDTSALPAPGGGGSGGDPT
The next assay deals with PDE4A4 (Homo sapiens, UniProt P27815). Kind of assay: IMAP fluorescence polarisation PDE4 subtype assay. The class given is biochemical. The protocol:
The binding reagent complexes with phosphate groups on nucleotide monophosphate generated from cyclic nucleotides (cAMP/cGMP) through phosphodiesterases. With fluorescence polarisation detection, binding causes a change in the rate of the molecular motion of the phosphate bearing molecule, and results in an increase in the fluorescence polarization value observed for the fluorescent label attached to the substrate. […] All assays were performed in 3% (final) DMSO for the IMAP assay.
A general note: Fluorescence polarisation rises when a labelled molecule tumbles more slowly, as on binding a larger partner.

A further assay concerns the target PDE4C2 (Homo sapiens, UniProt Q08493). The experiment in a line: IMAP fluorescence polarisation PDE4 subtype assay. The class given is biochemical.

One may read the IC50 as the concentration that gives 50% inhibition. Low readings indicate greater potency, high ones weaker potency. The EC50 is the concentration needed to bring the measured effect to its halfway point. The term inhibition denotes the relative decrease from the control value, in per cent. A high value points to a response far below the control.

PDE4A4, sequence (P27815 whole entry): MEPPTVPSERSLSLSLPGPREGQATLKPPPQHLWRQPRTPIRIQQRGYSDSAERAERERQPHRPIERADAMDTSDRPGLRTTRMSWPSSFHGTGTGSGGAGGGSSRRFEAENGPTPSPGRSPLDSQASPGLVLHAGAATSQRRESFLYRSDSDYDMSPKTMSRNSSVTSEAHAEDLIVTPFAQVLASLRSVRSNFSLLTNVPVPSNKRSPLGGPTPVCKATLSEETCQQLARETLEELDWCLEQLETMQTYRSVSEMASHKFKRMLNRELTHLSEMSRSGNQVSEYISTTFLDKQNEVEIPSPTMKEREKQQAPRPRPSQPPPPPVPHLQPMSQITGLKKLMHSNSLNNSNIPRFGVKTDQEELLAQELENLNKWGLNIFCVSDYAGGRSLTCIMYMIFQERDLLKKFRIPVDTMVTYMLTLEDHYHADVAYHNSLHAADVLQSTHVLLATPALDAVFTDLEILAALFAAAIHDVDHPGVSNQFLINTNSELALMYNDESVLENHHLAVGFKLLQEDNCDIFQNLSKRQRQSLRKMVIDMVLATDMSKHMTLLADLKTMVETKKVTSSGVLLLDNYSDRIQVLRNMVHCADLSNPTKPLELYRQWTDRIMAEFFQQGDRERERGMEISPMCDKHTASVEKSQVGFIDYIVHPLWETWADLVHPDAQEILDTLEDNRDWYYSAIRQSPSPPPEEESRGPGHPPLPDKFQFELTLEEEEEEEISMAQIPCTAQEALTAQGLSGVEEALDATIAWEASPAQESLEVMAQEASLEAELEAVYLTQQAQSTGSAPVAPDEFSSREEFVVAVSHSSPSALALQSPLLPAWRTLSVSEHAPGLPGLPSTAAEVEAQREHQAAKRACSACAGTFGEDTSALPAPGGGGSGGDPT
PDE4C2, sequence (Q08493 107-712): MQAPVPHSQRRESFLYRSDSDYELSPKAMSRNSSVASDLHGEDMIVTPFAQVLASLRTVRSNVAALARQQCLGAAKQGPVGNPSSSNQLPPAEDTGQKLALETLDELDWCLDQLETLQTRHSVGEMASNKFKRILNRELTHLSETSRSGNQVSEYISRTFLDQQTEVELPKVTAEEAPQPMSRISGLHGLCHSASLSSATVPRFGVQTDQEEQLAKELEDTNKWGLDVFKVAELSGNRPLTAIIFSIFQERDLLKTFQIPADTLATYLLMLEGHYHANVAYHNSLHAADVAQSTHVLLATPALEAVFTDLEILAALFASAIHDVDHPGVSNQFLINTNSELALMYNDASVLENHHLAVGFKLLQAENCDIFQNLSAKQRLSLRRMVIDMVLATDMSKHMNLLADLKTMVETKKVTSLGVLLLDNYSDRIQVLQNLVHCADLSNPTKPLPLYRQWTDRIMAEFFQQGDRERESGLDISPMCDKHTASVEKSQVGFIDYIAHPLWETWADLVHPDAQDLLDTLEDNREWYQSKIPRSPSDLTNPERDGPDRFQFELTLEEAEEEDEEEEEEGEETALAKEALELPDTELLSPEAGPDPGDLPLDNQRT
PDE4A10, sequence (P27815 1-825 isoform P27815-6): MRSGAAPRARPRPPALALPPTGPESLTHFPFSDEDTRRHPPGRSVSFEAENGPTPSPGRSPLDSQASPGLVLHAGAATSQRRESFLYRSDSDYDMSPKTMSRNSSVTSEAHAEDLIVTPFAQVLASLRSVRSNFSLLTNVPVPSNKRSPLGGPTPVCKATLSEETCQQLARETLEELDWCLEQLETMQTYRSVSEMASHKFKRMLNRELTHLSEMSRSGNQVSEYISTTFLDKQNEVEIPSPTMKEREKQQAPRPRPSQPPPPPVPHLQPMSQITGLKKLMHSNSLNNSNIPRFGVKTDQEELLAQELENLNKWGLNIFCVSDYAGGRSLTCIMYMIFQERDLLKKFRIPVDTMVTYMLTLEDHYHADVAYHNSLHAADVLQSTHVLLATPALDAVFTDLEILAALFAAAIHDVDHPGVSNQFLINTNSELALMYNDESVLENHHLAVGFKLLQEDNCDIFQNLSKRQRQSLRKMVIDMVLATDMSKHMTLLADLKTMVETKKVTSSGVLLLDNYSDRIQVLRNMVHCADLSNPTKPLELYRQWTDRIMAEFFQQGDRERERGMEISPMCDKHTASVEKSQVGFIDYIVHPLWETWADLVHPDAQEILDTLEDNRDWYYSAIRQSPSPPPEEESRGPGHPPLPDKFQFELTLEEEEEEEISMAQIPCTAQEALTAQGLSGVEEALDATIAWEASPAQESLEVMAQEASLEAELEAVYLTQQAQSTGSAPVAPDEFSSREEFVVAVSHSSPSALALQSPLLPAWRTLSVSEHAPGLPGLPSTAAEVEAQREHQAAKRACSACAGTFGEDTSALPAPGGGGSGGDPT

`O=C(Cc1c(Cl)c[n+]([O-])cc1Cl)c1ccc(OC(F)F)c2c1OC1(CCS(=O)(=O)CC1)O2` [Compound (I), 2-(3,5-Dichloro-1-oxido-pyridine-4-yl)-1-(7-difluoro-methoxy-2′,3′,5′,6′-tetrahydro-spiro[1,3-benzodioxole-2,4′-(4H)-thiopyran-1′,1′-dioxide]-4-yl)ethanone]: the IC50 was found to be 52 nM on PDE4A10 and 16 nM at PDE4A1. Further, the “Viability Emax, %” value in the assay on human PBMC is on record as 7%. Also, the EC50 in the assay with human PBMC (Homo sapiens, PBMC) is more than 9.99 µM; in assay [1], 14.7 nM. Further, the “increase of TNF-α levels observed at 1 hour” value with TNF-α is listed as “attenuated, in a clear dose-related manner”. In addition, on PDE4A4 (compound 10^−7 M), the inhibition at 0.1 µM turned out to be 47%. On PDE4A4 (compound 10^−8 M), the inhibition at 0.01 µM is 24%. On PDE4A4 (compound 10^−9 M), this molecule returned an inhibition at 0.001 µM of 0%. The values for the inhibition at 0.0001 µM against PDE4A4 (compound 10^−10 M) and at PDE4C2 (compound 10^−10 M) were 0% and 9%, respectively. Besides, on PDE4C2 (compound 10^−7 M (100 nM)), the “Inhibition (%)” value is “not significantly inhibited”.

Values taken from patent US20250268876A1, “TREATMENT OF HIDRADENITIS SUPPURATIVA WITH ORISMILAST” (UNION THERAPEUTICS A/S, priority 2021, published 2025).
